Laboratory results reported in US6645513B2, “Treatment of skin with adenosine or adenosine analog” (University of Massachusetts, priority 1998, dated 2003).
Where “and” joins values, the source holds several entries; their conditions need not be identical. Equal values may be shown once. Marks after values point to notes of the source that are not given here.

What was measured:
Assay type in all cases: cell-based
human skin fibroblasts [1] = test: [3H]thymidine incorporation (index of DNA synthesis) in human skin fibroblasts
Experimental: (§1) Human skin fibroblasts and human lung fibroblasts were supplied by the N.I.A. Aging Culture Repository Center (Camden, N.J.). For skin fibroblasts, primary cultures had been initiated from explants obtained from a 3 mm punch biopsy of the mesial aspect of the upper left arm. Human lung fibroblasts (IMR-90) were established from a […] normal […] fetus.
Cells were grown in Eagle's minimal essential medium (MEM) supplemented with 10% fetal bovine serum (FBS), 100 U/ml penicillin and […] streptomycin in a 37° C., 5% CO2/95% air environment. After reaching confluence, cells were subcultivated with 0.25% trypsin in MEM with no added Ca^2+ or Mg^2+.
As an index of DNA synthesis incorporation of [^3H]thymidine was measured as described in Ethier et al., Am. J. Physiol. 272:H1470-79 (1997). Confluent monolayers of human skin fibroblasts in MEM plus 10% FBS were seeded into 16 mm diameter culture wells (24-well plates) at a density of 1×10^4 cells/cm^2. Cells were grown at 37° C. under standard culture conditions (5% CO2-95% air) until they were approximately 75% confluent. Medium was then removed and the cells were made “serum-free” by incubation in MEM with no FBS for 24 hours. Adenosine or vehicle (MEM) was added for an additional 18 hours. This medium was then replaced with fresh MEM, and the cells were pulsed with […] [^3H] thymidine (6.7 Ci/mmol). After a 2 hour incubation period, the medium was discarded and the cells were rinsed twice with cold (4° C.) Hank's balanced salt solution (HBSS) and incubated for 5 minutes with 0.5 ml cold 10% (w/v) trichloroacetic acid (TCA). The wells were then rinsed with 8% TCA and the TCA-insoluble material was solubilized with 0.5 ml of a solution of 0.2M NaOH and 0.2% sodium […] sulfate (SDS). The radioactivity of this fraction was determined by standard liquid scintillation spectrometric techniques.
Incorporation of [^3H] thymidine was expressed as counts per minute (cpm) of ^3H per culture. Data in each experiment was derived from 4 identically treated wells.

[2] = system: human lung fibroblasts (IMR-90); test: [3H]thymidine incorporation in human lung fibroblasts (IMR-90); conditions: IMR-90 lung fibroblasts
Experimental: FIGS. 1A and 1B are histograms showing the effect of adenosine on [^3H]thymidine incorporation in cultures of normal human skin (FIG. 1A) and lung fibroblasts (FIG. 1B). After incubation in serum-free medium for 24 hours, cells were exposed to 10^−4 M adenosine for 18 hours. Medium was replaced with serum-free medium without adenosine, and [^3H]thymidine was added. Results are expressed as percent [^3H]thymidine incorporation compared to control cultures without adenosine and are means ±SEM for 4-5 experiments.
as §1
Cells were grown in Eagle's minimal essential medium (MEM) supplemented with 10% fetal bovine serum (FBS), 100 U/ml penicillin and […] streptomycin in a 37° C., 5% CO2/95% air environment. […]
As an index of DNA synthesis incorporation of [^3H]thymidine was measured as described in Ethier et al., Am. […] The radioactivity of this fraction was determined by standard liquid scintillation spectrometric techniques.
Incorporation of [^3H] thymidine was expressed as counts per minute (cpm) of ^3H per culture. […]

human skin fibroblasts [3] = test: [3H]phenylalanine incorporation (index of protein synthesis) in human skin fibroblasts; conditions: 10^-4 M, 48 h
Experimental: FIGS. 2A and 2B are histograms showing concentration responses of adenosine-stimulated protein synthesis in human skin fibroblasts from a young (FIG. 2A) and aged (FIG. 2B) donor. Cells were grown to 75% confluence. Medium was then replaced with serum-free medium with or without adenosine. After 48 hours, [^3H]phenylalanine incorporation was determined as described. Results are expressed as %[^3H]phenylalanine incorporation compared to control cultures without adenosine and are means ±SEM for 6-25 experiments. […] Incorporation of [^3H]phenylalanine was measured as an index of protein synthesis. Human skin fibroblasts were seeded into 24-well culture plates in MEM containing 10% FBS. When cells had grown to approximately 75% confluence the culture medium was replaced with serum-free MEM with or without adenosine. After 48 hours, 2 μCi/ml [^3H]phenylalanine was added to the cultures. Unlabeled phenylalanine (0.36 mM) was also added to equalize concentrations of intracellular and extracellular phenylalanine. […] The radioactivity of this fraction was determined by standard liquid scintillation spectrometric techniques. Incorporation of [^3H] phenylalanine was expressed as cpm of ^3H per culture well and data in each experiment were derived from six identically treated wells.

human skin fibroblasts [4] = test: Determination of cell size by forward light scatter (FACS); conditions: for % increase (cell size) / Relative Size (FLS): adenosine 10^-4 M, 18 h; for increase of cell size: 10^-4 M
Experimental: Human fibroblasts in MEM 10% FBS were seeded into 25 cm^2 culture flasks at a density of 1×10^4 cells/cm^2. When the cells had grown to approximately 80% confluence the culture medium was removed and the cells were incubated in serum-free MEM for 24 hours. Adenosine or vehicle (MEM) was added for 18 hours and cells were then washed twice with cold (4° C.) HBSS. Cells were removed with 0.25% trypsin in calcium-and magnesium-free MEM and diluted in cold (4° C.) HBSS for measurement of relative cell size with a fluorescence-activated cell sorter (FACS; Becton Dickinson Vantage). Cell size was determined by forward light scatter on a minimum of 1×10^4 cells per experiment. The effect of adenosine on cell size was determined on human skin fibroblasts from young and aged donors by measuring forward light scatter in a FACS analyzer. Cultures made quiescent by serum removal were exposed to adenosine for 18 hours, removed by trypsinization, and diluted in 4° C. HBSS. A minimum of 1×10^4 cells were measured for each experiment. Values are mean ±SEM for relative cell size determined by forward light scatter (FLS) in a fluorescence-activated cell sorter, and n=number of cells measured.

## Nc1ncnc2c1ncn2[C@@H]1O[C@H](CO)[C@@H](O)[C@H]1O [adenosine]
Human skin fibroblasts [1]; human fibroblasts AG607720B made quiescent by serum removal, 10^-4 M adenosine, five studies (FIG. 1A)
  increase of [3H]thymidine incorporation: 43±9%
Human skin fibroblasts [1]; skin fibroblasts from person (AG07306A), 10^-4 M, n=6
  peak stimulation of [3H]thymidine incorporation: 93±20%
Human skin fibroblasts [1]; skin fibroblasts from person one, 10^-4 M
  increase of [3H]thymidine incorporation: 53±31%
Human skin fibroblasts [1]; skin fibroblasts from person three, 10^-4 M
  increase of [3H]thymidine incorporation: 54±22%
Human skin fibroblasts [1]; skin fibroblasts from person two, 10^-4 M
  effect on DNA synthesis ([3H]thymidine incorporation): no effect
[2]; adenosine 10^-4 M (FIG. 1B)
  effect on [3H]thymidine incorporation: no effect
[2]; adenosine 10^-7 M to 10^-3 M (data not shown)
  stimulation of [3H]thymidine incorporation: failed to stimulate
Human skin fibroblasts [3]; skin fibroblasts from person (AG073060A), n=25
  increase of protein synthesis ([3H]phenylalanine incorporation): 13±4%
Human skin fibroblasts [3]; skin fibroblasts from person three (AG11730), n=17
  increase of protein synthesis ([3H]phenylalanine incorporation): 13±6%
Human skin fibroblasts [4]; aged donor, experiment 1
  % increase (cell size): 2.7* %
  Relative Size (FLS): 342 ± 0.75
Human skin fibroblasts [4]; aged donor, experiment 2
  % increase (cell size): 4.3* %
  Relative Size (FLS): 337 ± 0.96
Human skin fibroblasts [4]; aged donor, experiment 3
  % increase (cell size): 4.9* %
  Relative Size (FLS): 321 ± 0.81
Human skin fibroblasts [4]; skin fibroblasts from person (AG073060A), two of three experiments
  increase of cell size: 1.8% and 2.2%
Human skin fibroblasts [4]; skin fibroblasts from person three (AG11730), 3 of 3 experiments
  increase of cell size: 2.7-4.9%
Human skin fibroblasts [4]; young donor, experiment 1
  % increase (cell size): 0.4%
  Relative Size (FLS): 526 ± 0.55
Human skin fibroblasts [4]; young donor, experiment 2
  % increase (cell size): 2.2* %
  Relative Size (FLS): 326 ± 1.16
Human skin fibroblasts [4]; young donor, experiment 3
  % increase (cell size): 1.8* %
  Relative Size (FLS): 348 ± 0.95
